Source: patent US10023543B2 (CELGENE QUANTICEL RESEARCH, INC., priority 2014, dated 2018)

Test system: THP-1 (AML) cells
Experiment: LSD1 CD11b cellular assay (flow cytometry)
Format: cell-based
Conditions: Homo sapiens, THP-1, 96 h; CD11b expressing cells, 4 days; read-out: THP-1 IC50

Row | Structure (SMILES) | IC50 [µM]
1 | COc1ccc(-c2c(-c3ccc(C#N)c(F)c3)nc(NC[C@H]3CCNC3)n(C)c2=O)cc1 [Example 51, 2-fluoro-4-{5-(4-methoxy-phenyl)-1-methyl-6-oxo-2-[(3S)-(pyrrolidin-3-ylmethyl)-amino]-1,6-dihydro-pyrimidin-4-yl}-benzonitrile] | 0.1 to 1
2 | COc1ccc(-c2c(-c3ccc(C#N)c(F)c3)nc(NC[C@@H]3CCNC3)n(C)c2=O)cc1 [Example 52, 2-luoro-4-{5-(4-methoxy-phenyl)-1-methyl-6-oxo-2-[(3R)-(pyrrolidin-3-ylmethyl)-amino]-1,6-dihydro-pyrimidin-4-yl}-benzonitrile] | 0.1 to 1
3 | COc1ccc(-c2c(-c3ccc(C#N)c(F)c3)nc(NC3CCNCC3)n(C)c2=O)cc1 [Example 53, 2-fluoro-4-[5-(4-methoxy-phenyl)-1-methyl-6-oxo-2-(piperidin-4-ylamino)-1,6-dihydro-pyrimidin-4-yl]-benzonitrile] | 0.1 to 1
4 | COc1ccc(-c2c(-c3ccc(C#N)c(F)c3)nc(N(C)C[C@H]3CCNC3)n(C)c2=O)cc1 [Example 54, 2-fluoro-4-[5-(4-methoxy-phenyl)-1-methyl-2-(methyl-(3S)-pyrrolidin-3-ylmethyl-amino)-6-oxo-1,6-dihydro-pyrimidin-4-yl]-benzonitrile] | < 0.1
5 | CN(C)c1ccc(-c2c(-c3ccc(C#N)c(F)c3)nc(N3CCC(N)CC3)n(C)c2=O)cn1 [Example 57, 4-[2-(4-amino-piperidin-1-yl)-5-(6-dimethylamino-pyridin-3-yl)-1-methyl-6-oxo-1,6-dihydro-pyrimidin-4-yl]-2-fluoro-benzonitrile] | < 0.1
6 | CNC1CCN(c2nc(-c3ccc(C#N)c(F)c3)c(-c3ccc(OC)nc3)c(=O)n2C)CC1 [Example 58, 2-fluoro-4-[5-(6-methoxy-pyridin-3-yl)-1-methyl-2-(4-methylamino-piperidin-1-yl)-6-oxo-1,6-dihydro-pyrimidin-4-yl]-benzonitrile] | < 0.1
7 | CN(C)c1ccc(-c2c(-c3ccc(C#N)c(F)c3)nc(N3CCC(N)CC3)n(C)c2=O)cc1 [Example 59, 4-[2-(4-amino-piperidin-1-yl)-5-(4-dimethylamino-phenyl)-1-methyl-6-oxo-1,6-dihydro-pyrimidin-4-yl]-2-fluoro-benzonitrile] | < 0.1
8 | Cn1c(N2CCC(N)CC2)nc(-c2ccc(C#N)c(F)c2)c(-c2ccc(N3CCCC3)nc2)c1=O [Example 60, 4-[2-(4-amino-piperidin-1-yl)-1-methyl-6-oxo-5-(6-pyrrolidin-1-yl-pyridin-3-yl)-1,6-dihydro-pyrimidin-4-yl]-2-fluoro-benzonitrile] | < 0.1
9 | COc1ccc(-c2c(-c3ccc(C#N)c(F)c3)nc(N3CCCNCC3)n(C)c2=O)cn1 [Example 61, 4-[2-[1,4]diazepan-1-yl-5-(6-methoxy-pyridin-3-yl)-1-methyl-6-oxo-1,6-dihydro-pyrimidin-4-yl]-2-fluoro-benzonitrile] | < 0.1
10 | COc1ccc(-c2c(-c3ccc(C#N)cc3)nc(N3CCCNCC3)n(C)c2=O)cn1 [Example 62] | 0.1 to 1
11 | CN(C)c1ccc(-c2c(-c3ccc(C#N)c(F)c3)nc(N3CCCNCC3)n(C)c2=O)cn1 [Example 63, 4-[2-[1,4]diazepan-1-yl-5-(6-dimethylamino-pyridin-3-yl)-1-methyl-6-oxo-1,6-dihydro-pyrimidin-4-yl]-2-fluoro-benzonitrile] | < 0.1
12 | COc1ccc(-c2c(-c3ccc(C#N)c(F)c3)nc(N3CC(N)C3)n(C)c2=O)cc1 [Example 64, 4-[2-(3-amino-azetidin-1-yl)-5-(4-methoxy-phenyl)-1-methyl-6-oxo-1,6-dihydro-pyrimidin-4-yl]-2-fluoro-benzonitrile] | 0.1 to 1
13 | CN(C)c1ccc(-c2c(-c3ccc(C#N)cc3)nc(N3CCCNCC3)n(C)c2=O)cn1 [Example 67, 4-[2-[1,4]diazepan-1-yl-5-(6-dimethylamino-pyridin-3-yl)-1-methyl-6-oxo-1,6-dihydro-pyrimidin-4-yl]-benzonitrile] | < 0.1
14 | Cn1c(N2CCC(N)CC2)nc(-c2ccc(C#N)c(F)c2)c(-c2ccc(N3CCOCC3)nc2)c1=O [Example 68, 4-[2-(4-amino-piperidin-1-yl)-1-methyl-5-(6-morpholin-4-yl-pyridin-3-yl)-6-oxo-1,6-dihydro-pyrimidin-4-yl]-2-fluoro-benzonitrile] | < 0.1
15 | COc1ccc(-c2c(-c3ccc(C#N)c(F)c3)nc(N3CC(CN)C3)n(C)c2=O)cc1 [Example 69, 4-[2-(3-aminomethyl-azetidin-1-yl)-5-(4-methoxy-phenyl)-1-methyl-6-oxo-1,6-dihydro-pyrimidin-4-yl]-2-fluoro-benzonitrile] | 0.1 to 1
16 | CNCC1CN(c2nc(-c3ccc(C#N)c(F)c3)c(-c3ccc(OC)cc3)c(=O)n2C)C1 [Example 70, 2-fluoro-4-[5-(4-methoxy-phenyl)-1-methyl-2-(3-methylaminomethyl-azetidin-1-yl)-6-oxo-1,6-dihydro-pyrimidin-4-yl]-benzonitrile] | < 0.1
17 | CN(C)C1CCN(c2nc(-c3ccc(C#N)c(F)c3)c(-c3ccc4c(cnn4C)c3)c(=O)n2C)CC1 [Example 72, 4-[2-(4-dimethylamino-piperidin-1-yl)-1-methyl-5-(1-methyl-1H-indazol-5-yl)-6-oxo-1,6-dihydro-pyrimidin-4-yl]-2-fluoro-benzonitrile] | < 0.1
18 | Cn1c(N2CCC(N)CC2)nc(-c2ccc(C#N)c(F)c2)c(-c2ccc3[nH]ccc3c2)c1=O [Example 73, 4-[2-(4-amino-piperidin-1-yl)-5-(1H-indol-5-yl)-1-methyl-6-oxo-1,6-dihydro-pyrimidin-4-yl]-2-fluoro-benzonitrile] | < 0.1
19 | Cn1c(N2CCC(N)CC2)nc(-c2ccc(C#N)c(F)c2)c(-c2ccc3c(ccn3C)c2)c1=O [Example 74, 4-[2-(4-amino-piperidin-1-yl)-1-methyl-5-(1-methyl-1H-indol-5-yl)-6-oxo-1,6-dihydro-pyrimidin-4-yl]-2-fluoro-benzonitrile] | < 0.1
20 | Cn1c(N2CCC(N)CC2)nc(-c2ccc(C#N)c(F)c2)c(-c2ccc3cc[nH]c3c2)c1=O [Example 75, 4-[2-(4-amino-piperidin-1-yl)-5-(1H-indol-6-yl)-1-methyl-6-oxo-1,6-dihydro-pyrimidin-4-yl]-2-fluoro-benzonitrile] | < 0.1
21 | Cn1c(N2CCC(N)CC2)nc(-c2ccc(C#N)c(F)c2)c(-c2ccc3ccn(C)c3c2)c1=O [Example 76, 4-[2-(4-amino-piperidin-1-yl)-1-methyl-5-(1-methyl-1H-indol-6-yl)-6-oxo-1,6-dihydro-pyrimidin-4-yl]-2-fluoro-benzonitrile] | < 0.1
22 | Cn1c(N2CCC(N)CC2)nc(-c2ccc(C#N)c(F)c2)c(-c2ccc3cn[nH]c3c2)c1=O [Example 77, 4-[2-(4-amino-piperidin-1-yl)-5-(1H-indazol-6-yl)-1-methyl-6-oxo-1,6-dihydro-pyrimidin-4-yl]-2-fluoro-benzonitrile] | < 0.1
23 | COc1ccc(-c2c(-c3ccc(C#N)c(F)c3)nc(N3CC[C@@H](N)[C@@H](F)C3)n(C)c2=O)cc1 [Example 78, 4-[2-((4R,3S)-4-amino-3-fluoro-piperidin-1-yl)-5-(4-methoxy-phenyl)-1-methyl-6-oxo-1,6-dihydro-pyrimidin-4-yl]-2-fluoro-benzonitrile] | < 0.1
